Converted amounts (≈) assume the structure as drawn.
How the values were obtained:
[1] = test system: Mycobacterium tuberculosis; experiment: Growth inhibition of Mycobacterium bovis BCG ATCC 35743 at 1 ug/ml by nitrate reductase based two-fold dilution assay relative to control; assay type: functional; details: BCG str. ATCC 35743, read-out: GI
[2] = test system: Mycobacterium tuberculosis; experiment: Growth inhibition of Mycobacterium tuberculosis H37Ra ATCC 25177 at 3 ug/ml by XTT dye based two-fold dilution method relative to control; assay type: functional; details: read-out: GI
[3] = test system: Mycobacterium tuberculosis; experiment: Antitubercular activity against Mycobacterium tuberculosis H37Ra ATCC 25177 dormant stage by XTT dye based two-fold dilution method; assay type: functional
[4] = test system: Mycobacterium tuberculosis; experiment: Growth inhibition of Mycobacterium bovis BCG ATCC 35743 at 30 ug/ml by nitrate reductase based two-fold dilution assay relative to control; assay type: functional; details: BCG str. ATCC 35743, read-out: GI
[5] = test system: Mycobacterium tuberculosis; experiment: Growth inhibition of Mycobacterium bovis BCG ATCC 35743 at 10 ug/ml by nitrate reductase based two-fold dilution assay relative to control; assay type: functional; details: BCG str. ATCC 35743, read-out: GI
[6] = test system: Mycobacterium tuberculosis; experiment: Growth inhibition of Mycobacterium tuberculosis H37Ra ATCC 25177 at 10 ug/ml by XTT dye based two-fold dilution method relative to control; assay type: functional; details: read-out: GI
[7] = (§1) Growth inhibition of human A549 cells by MTT assay; assay type: cell-based; details: A549 cells
[8] = test system: A549; experiment: as §1; assay type: cell-based; details: a549
[9] = (§2) Growth inhibition of human PANC1 cells by MTT assay; assay type: cell-based, PANC-1; details: PANC-1 cells
[10] = test system: PANC-1; experiment: as §2; assay type: cell-based; details: panc-1
[11] = (§3) Growth inhibition of human HeLa cells by MTT assay; assay type: cell-based; details: HeLa cells
[12] = test system: HeLa; experiment: as §3; assay type: cell-based; details: hela
[13] = test system: Mycobacterium tuberculosis; experiment: Antitubercular activity against Mycobacterium bovis BCG ATCC 35743 dormant stage by nitrate reductase based two-fold dilution assay; assay type: functional; details: BCG str. ATCC 35743
[14] = test system: Mycobacterium tuberculosis; experiment: Growth inhibition of Mycobacterium tuberculosis H37Ra ATCC 25177 at 30 ug/ml by XTT dye based two-fold dilution method relative to control; assay type: functional; details: read-out: GI
[15] = test system: Pseudomonas fluorescens; experiment: Antibacterial activity against Pseudomonas fluorescens NCIM 2059 measured after 8 hrs; assay type: functional; details: NCIM 2059, 8 h
[16] = test system: Staphylococcus aureus; experiment: Growth inhibition of Staphylococcus aureus NCIM 2602 at 1 ug/ml measured after 12 hrs relative to control; assay type: functional; details: NCIM 2602, 12 h, read-out: GI
[17] = test system: Staphylococcus aureus; experiment: Growth inhibition of Staphylococcus aureus NCIM 2602 at 10 ug/ml measured after 12 hrs relative to control; assay type: functional; details: NCIM 2602, 12 h, read-out: GI
[18] = test system: Bacillus subtilis; experiment: Growth inhibition of Bacillus subtilis NCIM 2162 at 30 ug/ml measured after 12 hrs relative to control; assay type: functional; details: NCIM 2162, 12 h, read-out: GI
[19] = test system: Staphylococcus aureus; experiment: Antibacterial activity against Staphylococcus aureus NCIM 2602 measured after 12 hrs; assay type: functional; details: NCIM 2602, 12 h
[20] = test system: Pseudomonas fluorescens; experiment: Growth inhibition of Pseudomonas fluorescens NCIM 2059 at 10 ug/ml measured after 8 hrs relative to control; assay type: functional; details: NCIM 2059, 8 h, read-out: GI
[21] = test system: Escherichia coli; experiment: Growth inhibition of Escherichia coli NCIM 2576 at 1 ug/ml measured after 8 hrs relative to control; assay type: functional; details: NCIM 2576, 8 h, read-out: GI
[22] = test system: Pseudomonas fluorescens; experiment: Growth inhibition of Pseudomonas fluorescens NCIM 2059 at 30 ug/ml measured after 8 hrs relative to control; assay type: functional; details: NCIM 2059, 8 h, read-out: GI
[23] = test system: Bacillus subtilis; experiment: Growth inhibition of Bacillus subtilis NCIM 2162 at 1 ug/ml measured after 12 hrs relative to control; assay type: functional; details: NCIM 2162, 12 h, read-out: GI
[24] = test system: Pseudomonas fluorescens; experiment: Growth inhibition of Pseudomonas fluorescens NCIM 2059 at 1 ug/ml measured after 8 hrs relative to control; assay type: functional; details: NCIM 2059, 8 h, read-out: GI
[25] = test system: Staphylococcus aureus; experiment: Growth inhibition of Staphylococcus aureus NCIM 2602 at 30 ug/ml measured after 12 hrs relative to control; assay type: functional; details: NCIM 2602, 12 h, read-out: GI
[26] = test system: Bacillus subtilis; experiment: Growth inhibition of Bacillus subtilis NCIM 2162 at 10 ug/ml measured after 12 hrs relative to control; assay type: functional; details: NCIM 2162, 12 h, read-out: GI
[27] = test system: Escherichia coli; experiment: Growth inhibition of Escherichia coli NCIM 2576 at 10 ug/ml measured after 8 hrs relative to control; assay type: functional; details: NCIM 2576, 8 h, read-out: GI
[28] = test system: Escherichia coli; experiment: Growth inhibition of Escherichia coli NCIM 2576 at 30 ug/ml measured after 8 hrs relative to control; assay type: functional; details: NCIM 2576, 8 h, read-out: GI
[29] = test system: Escherichia coli; experiment: Antibacterial activity against Escherichia coli NCIM 2576 measured after 8 hrs; assay type: functional; details: NCIM 2576, 8 h
[30] = test system: Bacillus subtilis; experiment: Antibacterial activity against Bacillus subtilis NCIM 2162 measured after 12 hrs; assay type: functional; details: NCIM 2162, 12 h

| Structure (SMILES) | inhibition of growth at 1 µg/mL [1] [%] | inhibition of growth at 3 µg/mL [2] [%] | IC50 [3] [µM] | MIC90 [3] [µM] | inhibition of growth at 30 µg/mL [4] [%] | inhibition of growth at 10 µg/mL [5] [%] | inhibition of growth at 10 µg/mL [6] [%] | IC50 [13] [µM] | MIC90 [13] [µM] | inhibition of growth at 30 µg/mL [14] [%] | MIC [15] [µM] | inhibition of growth at 1 µg/mL [16] [%] | inhibition of growth at 10 µg/mL [17] [%] | inhibition of growth at 30 µg/mL [18] [%] | MIC [19] [µM] | inhibition of growth at 10 µg/mL [20] [%] | inhibition of growth at 1 µg/mL [21] [%] | inhibition of growth at 30 µg/mL [22] [%] | inhibition of growth at 1 µg/mL [23] [%] | inhibition of growth at 1 µg/mL [24] [%] | other results |
| --- | --- | --- | --- | --- | --- | --- | --- | --- | --- | --- | --- | --- | --- | --- | --- | --- | --- | --- | --- | --- | --- |
| CO[C@H]1/C=C/O[C@@]2(C)Oc3c(C)c(O)c4c(O)c(c(/C=N/N5CCN(C)CC5)c(O)c4c3C2=O)NC(=O)/C(C)=C\C=C\[C@H](C)[C@H](O)[C@@H](C)[C@@H](O)[C@@H](C)[C@H](OC(C)=O)[C@@H]1C [RIFAMPIN] | 94.6 | 96.4 | 0.0024 | 0.91 (≈ 0.749 µg/mL) | 99 | 96.8 | 98 | 0.04 | 0.98 (≈ 0.806 µg/mL) | 99.5 | – | – | – | – | – | – | – | – | – | – | GI50 [7]: > 100 µg/mL; GI90 [8]: > 100 µg/mL; GI50 [9]: > 100 µg/mL; GI90 [10]: > 100 µg/mL; GI50 [11]: > 100 µg/mL; GI90 [12]: > 100 µg/mL |
| Cc1nc(-c2ccc(F)cc2)oc1-c1csc(-c2ccc(Br)cc2)n1 | 28 | 43 | > 100 | > 100 | 42 | 36 | 45 | > 100 | > 100 | 54 | > 100 | 44.1 | 56.6 | 68.2 | > 100 | 54.2 | 48.9 | 68.3 | 46.5 | 48.6 | inhibition of growth at 30 µg/mL [25]: 67.8%; inhibition of growth at 10 µg/mL [26]: 51.8%; inhibition of growth at 10 µg/mL [27]: 60.7%; inhibition of growth at 30 µg/mL [28]: 69%; MIC [29]: > 100 µM; MIC [30]: > 100 µM |
| Cc1nc(-c2ccc(F)cc2)oc1-c1csc(-c2ccc(Cl)cc2)n1 | 25 | 3 | > 100 | > 100 | 33 | 29 | 4 | > 100 | > 100 | 13 | > 100 | 8.6 | 19.5 | 20.5 | > 100 | 20.7 | 5.86 | 21.5 | 4.2 | 0.52 | inhibition of growth at 30 µg/mL [25]: 25.8%; inhibition of growth at 10 µg/mL [26]: 12.9%; inhibition of growth at 10 µg/mL [27]: 10.4%; inhibition of growth at 30 µg/mL [28]: 24.9%; MIC [29]: > 100 µM; MIC [30]: > 100 µM |
| Cc1nc(-c2ccc(F)cc2)oc1-c1csc(-c2ccccc2)n1 | 28 | 13 | > 100 | > 100 | 33 | 32 | 13 | > 100 | > 100 | 31 | > 100 | 24 | 40.7 | 53.3 | > 100 | 41.9 | 21.3 | 53.1 | 21 | 22.4 | inhibition of growth at 30 µg/mL [25]: 58.8%; inhibition of growth at 10 µg/mL [26]: 47.8%; inhibition of growth at 10 µg/mL [27]: 47.8%; inhibition of growth at 30 µg/mL [28]: 50.7%; MIC [29]: > 100 µM; MIC [30]: > 100 µM |
